Laboratory results reported in the supplement of paper PMC10307832.

Columns and labels:
Experiment in all cases: relative viability (nuclei count vs DMSO), 5 days (fraction); higher = more cells survive
NCI-H441 = system: NCI-H441
How it was run: (§1)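 Medians of duplicate plates are given as relative viability. That measure is the nuclei count in treated wells divided by the count in vehicle wells. Counts were taken on 4× images of lung cancer cell lines in 1536-well plates, 5 days after pin-tool dosing the day after seeding with one drug alone or a fixed anchor-drug dose plus five library-drug doses (not always all listed) in √10 steps.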

NCI-H322M = system: NCI-H322M
How it was run: as §1

NCI-H2347 = system: NCI-H2347
How it was run: as §1

RERF-LC-KJ = system: RERF-LC-KJ
How it was run: as §1

NCI-H358 = system: NCI-H358
How it was run: as §1

NCI-H2228 = system: NCI-H2228
How it was run: as §1

LCLC-103H = system: LCLC-103H
How it was run: as §1

NCI-H1755 = system: NCI-H1755
How it was run: as §1

NCI-H23 = system: NCI-H23
How it was run: as §1

HCC-827 = system: HCC-827
How it was run: as §1

NCI-H1793 = system: NCI-H1793
How it was run: as §1

ChaGo-K-1 = system: ChaGo-K-1
How it was run: as §1

PC-3 [JPC-3] = system: PC-3 [JPC-3]
How it was run: as §1

HOP-62 = system: HOP-62
How it was run: as §1

SW 900 = system: SW 900
How it was run: as §1

LXF-289 = system: LXF-289
How it was run: as §1

NCI-H1395 = system: NCI-H1395
How it was run: as §1

NCI-H596 = system: NCI-H596
How it was run: as §1

NCI-H2170 = system: NCI-H2170
How it was run: as §1

NCI-H2126 = system: NCI-H2126
How it was run: as §1

NCI-H647 = system: NCI-H647
How it was run: as §1

NCI-H650 = system: NCI-H650
How it was run: as §1

EPLC-272H = system: EPLC-272H
How it was run: as §1

NCI-H1651 = system: NCI-H1651
How it was run: as §1

LOU-NH91 = system: LOU-NH91
How it was run: as §1

For Nc1cccc2c1CN(C1CCC(=O)NC1=O)C2=O (stereo unspecified) [Lenalidomide] + COc1cccc2cc(-c3nc([C@H]4CC[C@H](C(=O)O)CC4)n4ncnc(N)c34)[nH]c12 [OSI-027] (partner 0.5 µM), the relative viability (NCI-H441; first compound 0.253 µM) was 0.485, the relative viability (NCI-H441; first compound 0.8 µM) was 0.666 and the relative viability (NCI-H441; first compound 2.53 µM) was 0.876. It also gave a relative viability (NCI-H441; first compound 8 µM) of 0.631, a relative viability (NCI-H322M; first compound 0.253 µM) of 0.53 and a relative viability (NCI-H322M; first compound 0.8 µM) of 0.527. It also gave a relative viability (NCI-H322M; first compound 2.53 µM) of 0.609, a relative viability (NCI-H322M; first compound 8 µM) of 0.558 and a relative viability (NCI-H2347; first compound 0.253 µM) of 0.44. It also gave a relative viability (NCI-H2347; first compound 0.8 µM) of 0.47, a relative viability (NCI-H2347; first compound 2.53 µM) of 0.378 and a relative viability (NCI-H2347; first compound 8 µM) of 0.454. The relative viability (RERF-LC-KJ; first compound 0.253 µM) was 0.57, the relative viability (RERF-LC-KJ; first compound 0.8 µM) was 0.615 and the relative viability (RERF-LC-KJ; first compound 2.53 µM) was 0.643. The relative viability (RERF-LC-KJ; first compound 8 µM) was 0.644, the relative viability (NCI-H358; first compound 0.253 µM) was 0.717 and the relative viability (NCI-H358; first compound 0.8 µM) was 0.815. It also gave a relative viability (NCI-H358; first compound 2.53 µM) of 0.925, a relative viability (NCI-H358; first compound 8 µM) of 0.855 and a relative viability (NCI-H2228; first compound 0.253 µM) of 0.568. The relative viability (NCI-H2228; first compound 0.8 µM) was 0.641, the relative viability (NCI-H2228; first compound 2.53 µM) was 0.672 and the relative viability (NCI-H2228; first compound 8 µM) was 0.473. The relative viability (LCLC-103H; first compound 0.253 µM) was 0.433, the relative viability (LCLC-103H; first compound 0.8 µM) was 0.433 and the relative viability (LCLC-103H; first compound 2.53 µM) was 0.512. For the same compound, the relative viability (LCLC-103H; first compound 8 µM) was 0.473, the relative viability (NCI-H1755; first compound 0.253 µM) was 0.757 and the relative viability (NCI-H1755; first compound 0.8 µM) was 0.72. For the same compound, the relative viability (NCI-H1755; first compound 2.53 µM) was 0.79, the relative viability (NCI-H1755; first compound 8 µM) was 0.67 and the relative viability (NCI-H23; first compound 0.253 µM) was 0.581. For the same compound, the relative viability (NCI-H23; first compound 0.8 µM) was 0.499, the relative viability (NCI-H23; first compound 2.53 µM) was 0.742 and the relative viability (NCI-H23; first compound 8 µM) was 0.502. For the same compound, the relative viability (HCC-827; first compound 0.253 µM) was 0.807, the relative viability (HCC-827; first compound 0.8 µM) was 0.74 and the relative viability (HCC-827; first compound 2.53 µM) was 0.849. The relative viability (HCC-827; first compound 8 µM) was 0.831, the relative viability (NCI-H1793; first compound 0.253 µM) was 0.359 and the relative viability (NCI-H1793; first compound 2.53 µM) was 0.319. For the same compound, the relative viability (NCI-H1793; first compound 8 µM) was 0.244, the relative viability (ChaGo-K-1; first compound 0.253 µM) was 0.586 and the relative viability (ChaGo-K-1; first compound 0.8 µM) was 0.441. For the same compound, the relative viability (ChaGo-K-1; first compound 2.53 µM) was 0.656, the relative viability (ChaGo-K-1; first compound 8 µM) was 0.548 and the relative viability (PC-3 [JPC-3]; first compound 0.253 µM) was 0.832. It also gave a relative viability (PC-3 [JPC-3]; first compound 0.8 µM) of 0.569, a relative viability (PC-3 [JPC-3]; first compound 2.53 µM) of 0.769 and a relative viability (PC-3 [JPC-3]; first compound 8 µM) of 0.818. For the same compound, the relative viability (HOP-62; first compound 0.253 µM) was 0.685, the relative viability (HOP-62; first compound 0.8 µM) was 0.802 and the relative viability (HOP-62; first compound 2.53 µM) was 0.998. The relative viability (HOP-62; first compound 8 µM) was 0.789, the relative viability (SW 900; first compound 0.253 µM) was 0.559 and the relative viability (SW 900; first compound 2.53 µM) was 0.742. For the same compound, the relative viability (SW 900; first compound 8 µM) was 0.532, the relative viability (LXF-289; first compound 0.253 µM) was 0.832 and the relative viability (LXF-289; first compound 0.8 µM) was 0.823. The relative viability (LXF-289; first compound 2.53 µM) was 0.871, the relative viability (LXF-289; first compound 8 µM) was 0.772 and the relative viability (NCI-H1395; first compound 0.253 µM) was 0.74. The relative viability (NCI-H1395; first compound 0.8 µM) was 0.501, the relative viability (NCI-H1395; first compound 2.53 µM) was 0.633 and the relative viability (NCI-H1395; first compound 8 µM) was 0.601. It also gave a relative viability (NCI-H596; first compound 0.253 µM) of 0.784, a relative viability (NCI-H596; first compound 2.53 µM) of 0.764 and a relative viability (NCI-H596; first compound 8 µM) of 0.532. The relative viability (NCI-H2170; first compound 0.253 µM) was 0.691, the relative viability (NCI-H2170; first compound 0.8 µM) was 0.612 and the relative viability (NCI-H2170; first compound 2.53 µM) was 0.817. It also gave a relative viability (NCI-H2170; first compound 8 µM) of 0.588, a relative viability (NCI-H2126; first compound 0.253 µM) of 0.66 and a relative viability (NCI-H2126; first compound 0.8 µM) of 0.609. It also gave a relative viability (NCI-H2126; first compound 2.53 µM) of 0.663, a relative viability (NCI-H2126; first compound 8 µM) of 0.593 and a relative viability (NCI-H647; first compound 0.253 µM) of 0.587. It also gave a relative viability (NCI-H647; first compound 0.8 µM) of 0.551, a relative viability (NCI-H647; first compound 2.53 µM) of 1.02 and a relative viability (NCI-H647; first compound 8 µM) of 0.744. It also gave a relative viability (NCI-H650; first compound 0.253 µM) of 0.528, a relative viability (NCI-H650; first compound 2.53 µM) of 0.577 and a relative viability (NCI-H650; first compound 8 µM) of 0.472. The relative viability (EPLC-272H; first compound 0.253 µM) was 0.297, the relative viability (EPLC-272H; first compound 0.8 µM) was 0.339 and the relative viability (EPLC-272H; first compound 2.53 µM) was 0.292. It also gave a relative viability (EPLC-272H; first compound 8 µM) of 0.283, a relative viability (NCI-H1651; first compound 0.253 µM) of 0.772 and a relative viability (NCI-H1651; first compound 0.8 µM) of 0.728. The relative viability (NCI-H1651; first compound 2.53 µM) was 0.994, the relative viability (NCI-H1651; first compound 8 µM) was 0.919 and the relative viability (LOU-NH91; first compound 0.253 µM) was 0.769. The relative viability (LOU-NH91; first compound 0.8 µM) was 0.699, the relative viability (LOU-NH91; first compound 2.53 µM) was 0.703 and the relative viability (LOU-NH91; first compound 8 µM) was 0.664.
